Test results reported in patent publication US8394969B2, “Cyclic benzimidazole derivatives useful as anti-diabetic agents” (Merck Sharp & Dohme Corp., priority 2008, dated 2013).
Structures can show the parent of a compound that is named as a salt.

Molecular target: recombinant human AMPK complex 1 (containing α1β1γ1) (Homo sapiens, UniProt Q13131+Q9Y478)
Assay: […] (in vitro AMPK activation assay)
Format: biochemical
Conditions: for Emax / EC50: recombinant human AMPK complex 1 (α1β1γ1); for Emax: basal activity subtracted, read-out: % Maximum AMP Activation of human AMPK Complex 1; for EC50: read-out: EC50

Sequence of recombinant human AMPK complex 1 (containing α1β1γ1) (Q13131 whole entry): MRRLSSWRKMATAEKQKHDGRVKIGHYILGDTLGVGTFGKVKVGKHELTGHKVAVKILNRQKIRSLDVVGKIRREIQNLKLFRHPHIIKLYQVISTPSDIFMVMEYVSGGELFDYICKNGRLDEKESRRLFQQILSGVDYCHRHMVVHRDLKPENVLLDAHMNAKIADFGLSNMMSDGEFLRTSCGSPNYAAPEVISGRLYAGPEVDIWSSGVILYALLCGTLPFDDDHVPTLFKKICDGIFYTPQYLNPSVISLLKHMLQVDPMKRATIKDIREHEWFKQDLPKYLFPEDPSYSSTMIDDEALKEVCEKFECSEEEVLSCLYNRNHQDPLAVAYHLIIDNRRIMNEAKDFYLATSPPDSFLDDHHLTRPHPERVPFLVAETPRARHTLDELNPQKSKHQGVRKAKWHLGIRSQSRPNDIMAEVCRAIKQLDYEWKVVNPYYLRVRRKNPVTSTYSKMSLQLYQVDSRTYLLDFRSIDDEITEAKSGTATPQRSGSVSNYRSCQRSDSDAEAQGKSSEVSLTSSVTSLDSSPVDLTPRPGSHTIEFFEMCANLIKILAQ
Sequence of recombinant human AMPK complex 1 (containing α1β1γ1) (Q9Y478 whole entry): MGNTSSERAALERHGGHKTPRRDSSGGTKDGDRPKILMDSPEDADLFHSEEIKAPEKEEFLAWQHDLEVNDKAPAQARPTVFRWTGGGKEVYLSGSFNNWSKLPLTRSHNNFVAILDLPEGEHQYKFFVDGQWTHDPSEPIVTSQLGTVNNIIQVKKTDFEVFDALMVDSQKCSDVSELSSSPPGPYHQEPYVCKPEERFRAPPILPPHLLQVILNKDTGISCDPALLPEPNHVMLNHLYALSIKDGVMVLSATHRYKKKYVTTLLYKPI
Sequence of recombinant human AMPK complex 1 (containing α1β1γ1) (P54619 whole entry partner): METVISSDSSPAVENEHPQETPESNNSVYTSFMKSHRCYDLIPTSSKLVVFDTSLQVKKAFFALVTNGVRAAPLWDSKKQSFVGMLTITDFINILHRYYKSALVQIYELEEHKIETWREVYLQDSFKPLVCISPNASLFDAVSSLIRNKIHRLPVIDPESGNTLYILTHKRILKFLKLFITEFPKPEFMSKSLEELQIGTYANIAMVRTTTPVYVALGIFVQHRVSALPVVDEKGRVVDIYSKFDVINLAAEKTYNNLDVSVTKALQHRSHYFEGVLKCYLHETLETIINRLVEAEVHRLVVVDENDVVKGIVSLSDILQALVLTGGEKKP

Structure (SMILES)	Emax [%]	further results
Cc1ccc(Oc2nc3cc(-c4ccc(-c5ccccc5F)cc4)c(Cl)cc3[nH]2)cc1C(=O)O [Example 192, 5-{[6-chloro-5-(2′-fluorobiphenyl-4-yl)-1H-benzimidazol-2-yl]oxy}-2-methylbenzoic acid]	> 80	–
Cc1cc(Oc2nc3cc(-c4ccc(-c5ccccc5O)cc4)c(Cl)cc3[nH]2)cc(C(=O)O)c1 [Example 53, 3-[6-Chloro-5-(2′-hydroxy-biphenyl-4-yl)-1H-benzoimidazol-2-yloxy]-5-methyl-benzoic acid]	> 80	–
Cc1ccc(Oc2nc3c(F)c(-c4ccc5c(ccn5C)c4)c(F)cc3[nH]2)cc1C(=O)O [Example 228, 5-[4,6-Difluoro-5-(1-methyl-1H-indol-5-yl)-1H-benzoimidazol-2-yloxy]-2-methyl-benzoic acid]	–	EC50: 2 nM
Cc1ccc(Oc2nc3cc(C#Cc4cccc(F)c4)c(Cl)cc3[nH]2)cc1C(=O)O [Example 111, 5-[6-Chloro-5-(3-fluoro-phenylethynyl)-1H-benzoimidazol-2-yloxy]-2-methyl-benzoic acid]	> 80	–
Cc1ccc(Oc2nc3cc(-c4ccc(C(C)(C)N)cc4)c(Cl)cc3[nH]2)cc1C(=O)O [Example 297, 2-{4-[2-(3-carboxy-4-methylphenoxy)-6-chloro-1H-benzimidazol-5-yl]phenyl}propan-2-aminium trifluoroacetate]	> 80	–
Cc1ccc(Oc2nc3cc(-c4ccc(C(C)N(C)C)cc4)c(Cl)cc3[nH]2)cc1C(=O)O (stereo not shown) [Example 292, 1-{4-[2-(3-carboxy-4-methylphenoxy)-6-chloro-1H-benzimidazol-5-yl]phenyl}-N,N-dimethylethanaminium trifluoroacetate]	> 80	–
O=C(O)Cc1ccc(Oc2nc3cc(-c4ccc(-c5ccccc5)cc4)c(Cl)cc3[nH]2)cc1 [Example 26, [4-(5-Biphenyl-4-yl-6-chloro-1H-benzoimidazol-2-yloxy)-phenyl]-acetic acid]	> 80	–
COC(=O)c1cc(Oc2nc3cc(C#Cc4ccccc4)c(Cl)cc3[nH]2)cc(C(=O)OC)c1 [Example 49, 5-(6-Chloro-5-phenylethynyl-1H-benzoimidazol-2-yloxy)-isophthalic acid dimethyl ester]	> 80	–
Cc1ccc(Oc2nc3cc(-c4ccc(-c5ccc[n+]([O-])c5)cc4)c(Cl)cc3[nH]2)cc1C(=O)O [Example 161, 5-{6-Chloro-5-[4-(1-oxy-pyridin-3-yl)-phenyl]-1H-benzoimidazol-2-yloxy}-2-methyl-benzoic acid]	> 80	–
COC(=O)c1cc(Oc2nc3cc(-c4ccc(-c5ccc(=O)n(C)c5)cc4)c(Cl)cc3[nH]2)ccc1C [Example 170, 5-{6-Chloro-5-[4-(1-methyl-6-oxo-1,6-dihydro-pyridin-3-yl)-pheny1]-1H-benzoimidazol-2-yloxy}-2-methyl-benzoic acid methyl ester]	> 80	–
CCc1ccc(Oc2nc3cc(-c4ccc(-c5ccccc5)cc4)c(Cl)cc3[nH]2)cc1C(=O)O [Example 212, 5-(5-Biphenyl-4-yl-6-chloro-1H-benzoimidazol-2-yloxy)-2-ethyl-benzoic acid]	> 80	–
Cc1ccc(Oc2nc3cc(-c4cncc5ccccc45)c(Cl)cc3[nH]2)cc1C(=O)O [Example 336, 2-(3-carboxy-4-methylphenoxy)-6-chloro-5-isoquinolin-4-yl-1H-3,1-benzimidazol-3-ium formate]	> 80	–
COC(=O)c1cc(Oc2nc3cc(-c4ccc(-c5ccccc5OC)cc4)c(Cl)cc3[nH]2)ccc1C [Example 197, Methyl 5-{[6-chloro-5-(2′-methoxybiphenyl-4-yl)-1H-benzimidazol-2-yl]oxy}-2-methylbenzoate]	> 80	–
N#Cc1ccc(Oc2nc3cc(-c4ccc(-c5ccccc5)cc4)c(Cl)cc3[nH]2)cc1C#N [Example 101, 4-(5-Biphenyl-4-yl-6-chloro-1H-benzoimidazol-2-yloxy)-phthalonitrile]	> 80	–
Cc1ccc(Oc2nc3cc(-c4ccc5c(c4)cc(C(=O)O)n5C)c(Cl)cc3[nH]2)cc1C(=O)O [Example 275, 5-[2-(3-Carboxy-4-methyl-phenoxy)-6-chloro-1H-benzoimidazol-5-yl]-1-methyl-1H-indole-2-carboxylic acid]	> 80	–
Cc1ccc(Oc2nc3cc(-c4ccc(C(C)O)cc4)c(Cl)cc3[nH]2)cc1C(=O)O (stereo not shown) [Example 156, 5-{6-Chloro-5-[4-(1-hydroxy-ethyl)-phenyl]-1H-benzoimidazol-2-yloxy}-2-methyl-benzoic acid]	> 80	–
Cc1ccc(Oc2nc3cc(-c4ccc5ccccc5c4)c(Cl)cc3[nH]2)cc1C(=O)O [Example 66, 5-{[6-chloro-5-(2-naphthyl)-1H-benzimidazol-2-yl]oxy}-2-methylbenzoic acid]	> 80	–
Cc1ccnc(-c2cc3nc(Oc4ccc(C)c(C(=O)O)c4)[nH]c3cc2Cl)c1 [Example 335, 2-(3-carboxy-4-methylphenoxy)-6-chloro-5-(4-methylpyridin-2-yl)-1H-3,1-benzimidazol-3-ium formate]	> 80	–
Cc1ccc(Oc2nc3cc(-c4ccc(N5CCOCC5)cc4)c(F)cc3[nH]2)cc1C(=O)O [Example 247, 5-[6-Fluoro-5-(4-morpholin-4-yl-phenyl)-1H-benzoimidazol-2-yloxy]-2-methyl-benzoic acid]	> 80	–

Structure (SMILES)	Emax [%]	further results
Cc1ccc(Oc2nc3cc(C#Cc4ccc(-c5nnc(O)[nH]5)cc4)c(Cl)cc3[nH]2)cc1C(=O)O [Example 77, 5-{6-Chloro-5-[4-(5-hydroxy-4H-[1,2,4]triazol-3-yl)-phenylethynyl]-1H-benzoimidazol-2-yloxy}-2-methyl-benzoic acid]	> 80	–
Cc1ccc(Oc2nc3cc(-c4ccc(C(C)N)cc4)c(Cl)cc3[nH]2)cc1C(=O)O (stereo not shown) [Example 293, 1-{4-[2-(3-carboxy-4-methylphenoxy)-6-chloro-1H-benzimidazol-5-yl]phenyl}ethanaminium trifluoroacetate]	> 80	–
CCCc1ccc(-c2cc3nc(Oc4ccc(C)c(C(=O)O)c4)[nH]c3cc2Cl)cc1.N [Example 348, Ammonium 5-{[6-chloro-5-(4-propylphenyl)-1H-benzimidazol-2-yl]oxy}-2-methylbenzoate]	–	% Maximum AMP Activation of human AMPK Complex 1: greater than 80%
O=C(O)C1(c2ccc(Oc3nc4cc(-c5ccc(-c6ccccc6)cc5)c(Cl)cc4[nH]3)cc2)CC1 [Example 7, 1-[4-(5-Biphenyl-4-yl-6-chloro-1H-benzoimidazol-2-yloxy)-phenyl]-cyclopropanecarboxylic acid]	> 80	–
Cc1ccc(Oc2nc3cc(C#Cc4ccc(-c5nn[nH]n5)cc4)c(Cl)cc3[nH]2)cc1C(=O)O [Example 79, 5-{6-Chloro-5-[4-(2H-tetrazol-5-yl)-phenylethynyl]-1H-benzimidazol-2-yloxy}-2-methyl-benzoic acid]	> 80	–
O=C(O)c1cccc(Sc2nc3cc(-c4ccc(-c5ccccc5)cc4)c(Cl)cc3[nH]2)c1 [Example 64, 3-[(5-biphenyl-4-yl-6-chloro-1H-benizmidazol-2-yl)thio]benzoic acid]	> 80	–
Cn1ccc2cc(-c3cc4nc(Oc5ccc(CC(=O)O)cc5)[nH]c4cc3Cl)ccc21 [Example 243, {4-[6-Chloro-5-(1-methyl-1H-indol-5-yl)-1H-benzoimidazol-2-yloxy]-phenyl}-acetic acid]	> 80	–
Cc1ccc(Oc2nc3cc(-c4ccc(N5CCOCC5)nc4)c(Cl)cc3[nH]2)cc1C(=O)O [Example 173, 5-[6-Chloro-5-(6-morpholin-4-yl-pyridin-3-yl)-1H-benzoimidazol-2-yloxy]-2-methyl-benzoic acid]	> 80	–
Cc1ccc(Oc2nc3cc(-c4ccc(N5CCNCC5)cc4)c(Cl)cc3[nH]2)cc1C(=O)O [Example 178, 5-[6-Chloro-5-(4-piperazin-1-yl-phenyl)-1H-benzoimidazol-2-yloxy]-2-methyl-benzoic acid]	> 80	–
Cc1ccc(Oc2nc3cc(C#Cc4cncn4C)c(Cl)cc3[nH]2)cc1C(=O)O [Example 134, 5-[6-Chloro-5-(3-methyl-3H-imidazol-4-ylethynyl)-1H-benzoimidazol-2-yloxy]-2-methyl-benzoic acid]	> 80	–
Cc1ccc(Oc2nc3cc(-c4ccc(C(C)C)cc4)c(Cl)cc3[nH]2)cc1C(=O)O [Example 352, 5-[6-Chloro-5-(4-isopropyl-phenyl)-1H-benzoimidazol-2-yloxy]-2-methyl-benzoic acid]	> 80	–
Cc1ccc(Oc2nc3cc(C#Cc4ccc(OC(F)(F)F)cc4)c(Cl)cc3[nH]2)cc1C(=O)O [Example 95, 5-[6-Chloro-5-(4-trifluoromethoxy-phenylethynyl)-1H-benzoimidazol-2-yloxy]-2-methyl-benzoic acid]	> 80	–
Cc1ccc(Oc2nc3cc(-c4ccc5onc(C)c5c4)c(Cl)cc3[nH]2)cc1C(=O)O [Example 141, 5-[6-Chloro-5-(3-methyl-benzo[d]isoxazol-5-yl)-1H-benzoimidazol-2-yloxy]-2-methyl-benzoic acid]	> 80	–
OCc1cccc(Oc2nc3cc(-c4ccc(-c5ccccc5)cc4)c(Cl)cc3[nH]2)c1 [Example 37, [3-(5-Biphenyl-4-yl-6-chloro-1H-benzoimidazol-2-yloxy)-phenyl]-methanol]	> 80	–
COc1ccc(-c2cc3nc(Oc4ccc(C)c(C(=O)O)c4)[nH]c3cc2Cl)c(F)c1 [Example 326, 5-{[6-chloro-5-(2-fluoro-4-methoxyphenyl)-1H-benzimidazol-2-yl]oxy}-2-methylbenzoic acid]	–	EC50: 10 nM
O=C(O)Cc1cc(O)cc(Oc2nc3cc(-c4ccc(-c5ccccc5)cc4)c(Cl)cc3[nH]2)c1 [Example 21, [3-(5-Biphenyl-4-yl-6-chloro-1H-benzoimidazol-2-yloxy)-5-hydroxy-phenyl]-acetic acid]	> 80	–
Cc1ccc(Oc2nc3cc(-c4ccc(-c5cccnc5)cc4)c(Cl)cc3[nH]2)cc1C(=O)O [Example 169, 5-[6-Chloro-5-(4-pyridin-3-yl-phenyl)-1H-benzoimidazol-2-yloxy]-2-methyl-benzoic acid]	> 80	–
Cc1ccc(Oc2nc3cc(-c4ccc(-c5ccc(C(=O)O)cc5)cc4)c(Cl)cc3[nH]2)cc1C(=O)O [Example 102, 4′-[2-(3-Carboxy-4-methyl-phenoxy)-6-chloro-1H-benzoimidazol-5-yl]-biphenyl-4-carboxylic acid]	> 80	–
